Laboratory results published in PubChem BioAssay (NCI).
“And” between values parts separate entries of the source, which are not always exact repeats. Identical values can stand only once.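 Interpolation was linear, between the two tested concentrations surrounding the appropriate level; five concentrations were tested over 48 hours in 96-well plates. GI50 = concentration required for 50% inhibition of growth. At the TGI there is no net growth.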

Key:
Assay in all cases: NCI tumour cell line growth inhibition, 48 h
DLD-1 colon = test system: DLD-1 colon
K-562 leukemia = test system: K-562 leukemia
OVCAR-3 ovarian = test system: OVCAR-3 ovarian
OVCAR-4 ovarian = test system: OVCAR-4 ovarian
RXF 393 renal = test system: RXF 393 renal
SF-295 CNS = test system: SF-295 CNS
SK-OV-3 ovarian = test system: SK-OV-3 ovarian
SW-620 colon = test system: SW-620 colon
SK-MEL-5 melanoma = test system: SK-MEL-5 melanoma
DU-145 prostate = test system: DU-145 prostate

SMILES	TGI (DLD-1 colon)	TGI (K-562 leukemia) [µM]	TGI (OVCAR-3 ovarian)	TGI (OVCAR-4 ovarian) [µM]	TGI (RXF 393 renal) [µM]	TGI (SF-295 CNS)	TGI (SK-OV-3 ovarian) [µM]	TGI (SW-620 colon)	GI50 (DLD-1 colon)	GI50 (K-562 leukemia)	GI50 (OVCAR-3 ovarian)	GI50 (OVCAR-4 ovarian)	GI50 (RXF 393 renal) [µM]	GI50 (SF-295 CNS) [µM]	GI50 (SK-MEL-5 melanoma) [µM]	TGI (SK-MEL-5 melanoma) [µM]	GI50 (SK-OV-3 ovarian) [µM]	GI50 (SW-620 colon)	TGI (DU-145 prostate) [µM]
Cn1c(=O)n(CC2CS2)c2ccccc21 (stereo unspecified)	> 100 µM	> 100	> 100 µM	> 100	> 100	> 100 µM	> 100	> 100 µM											
CCC1(OC(=O)CN)C(=O)OCc2c1cc1n(c2=O)Cc2cc3cc4c(cc3nc2-1)OCO4 (stereo unspecified)	40.5 µM and > 100 µM	> 100	1.05 µM and 0.554 µM		0.119	0.0211 µM and < 0.01 µM	0.174	> 100 µM and 10.2 µM	0.278 µM and 0.203 µM	0.0512 µM and 0.0225 µM	0.196 µM and 0.131 µM	0.216 µM and 0.0574 µM	0.0158	< 0.01	< 0.01	0.0759	< 0.01	0.0116 µM and 0.0165 µM	
O=c1c(O)cccn1C1OC(CO)C(O)C1O (stereo unspecified)	> 100 µM	> 100		> 100	> 100		> 100												
C=CCCCCn1c2ccccc2c2c(C)c3cnccc3c(C)c21	29.9 µM	16.1	19.9 µM	21.8	43	26 µM	35.9	73.6 µM								16.7			
C[C@]12CCC(=O)C=C1CC[C@@H]1[C@@H]2[C@@H](O)C[C@@]2(C)[C@H]1CC[C@]2(O)C(=O)COC(=O)CCC1CCCC1	> 100 µM		> 100 µM		> 100	> 100 µM	> 100	> 100 µM								> 100			
Cc1c(C#N)c(=N)oc2ccccc12		> 100	> 100 µM	> 100	> 100	> 100 µM	> 100	> 100 µM								> 100			> 100
COC(=O)c1cc(C)ccc1C1CN=NC12Cc1c(C)cc(C)cc1C2=O (stereo unspecified)		> 100	75.5 µM	80	72.5	97.4 µM	69	> 100 µM								31.6			> 100
Cn1ccc2c(c1=O)C(=O)OC2(C)C		> 100	> 100 µM	> 100	> 100	> 100 µM	> 100	> 100 µM								> 100			> 100
CS(=O)(=O)[O-].CS(=O)(=O)[O-].NC1CCCCC1N.[Pt+4] (stereo unspecified)	> 100 µM	> 100	> 100 µM	> 100	> 100	> 100 µM	> 100	> 100 µM	> 100 µM	79.1 µM	> 100 µM	> 100 µM	> 100	> 100	48.4	> 100	> 100	13 µM	
